What all share (type): in vitro ADME
Data set [1] in a line: In vitro stability in liver microsomes, beagle dogs. As to conditions: 0.5 mg/mL. On the procedure: (§1) Purpose of the assay: Metabolic stabilities of the assay compounds in liver microsomes of CD-1 mice, SD rats, beagle dogs, cynomolgus monkeys, and human were assayed, respectively.
(§2) Procedure of the assay: Two 96-well incubation plates were prepared and named T60 incubation plate and NCF60 incubation plate, respectively. 445 μL of microsomal working solutions (liver microsomal protein concentration of 0.56 mg/mL) were added to the T60 incubation plate and the NCF60 incubation plate, respectively, and then the above incubation plates were pre-incubated in a 37° C. water bath for about 10 minutes.
(§3) After the pre-incubation, 5 μL of working solutions of the assay sample or the control compound were added to the T60 incubation plate and the NCF60 incubation plate, respectively, and the mixture was mixed well. 50 μL of potassium phosphate buffer was added to each well of the NCF60 incubation plate to initiate the reaction. 180 μL of stop solution (200 ng/mL tolbutamide and 200 ng/mL labetalol in acetonitrile) and 6 uL of NADPH regeneration system working solution were added to the T0 stop plate, and 54 μL of sample was transferred from T60 incubation plate to T0 stop plate (generation of TO sample). The reaction was initiated by adding 44 μL of NADPH regeneration system working solution to each well of the T60 incubation plate. Only 54 μL of microsome working solution, 6 uL of NADPH regeneration system working solution and 180 μL of stop solution were added to the Blank plate. Therefore, in samples of the assay compound or the control compound, the final reaction concentration of compound, testosterone, diclofenac and propafenone was 1 μM, the concentration of liver microsomes was 0.5 mg/mL, and the final reaction concentrations of DMSO and acetonitrile in the reaction system were 0.01% (v/v) and 0.99% (v/v), respectively.
(§4) After an appropriate time (e.g., 5, 15, 30, 45 and 60 minutes) of incubation, 180 μL of stop solutions (200 ng/mL tolbutamide and 200 ng/mL labetalol in acetonitrile) were added to the sample wells of each stop plate, respectively. 60 μL of sample was removed from the T60 incubation plate to stop the reaction. All sample plates were shaken well and then centrifuged at 3220×g for 20 minutes. Then 80 μL of supernatant was taken out from each well, and diluted in 240 μL of pure water for liquid chromatography-tandem mass spectrometry analysis. All samples were injected and analyzed by liquid chromatography-tandem mass spectrometry.

Data set [2] is described as follows: Metabolic stability in hepatocytes, SD rats. On the procedure:
(§5) Purpose of the assay: Metabolic stabilities of assay compounds in hepatocytes of CD-1 mice, SD rats, beagle dogs, cynomolgus monkeys, and human were assayed, respectively.
(§6) Procedure of the assay: Several 96-well sample precipitation plates were prepared and named T0, T15, T30, T60, T90, T120, TO-MC, T120-MC and blank substrates, respectively. The recovery medium and incubation medium were taken out in advance and placed in a 37° C. water bath for pre-heating. Cryopreserved hepatocytes were removed from the liquid nitrogen tank and immediately immersed in a 37° C. water bath (approximately 90 seconds). After the cryopreserved hepatocytes had thawed and loosened, they were poured into a centrifuge tube containing 40 mL of recovery medium, and the tube was gently inverted to allow the cells to be resuspended in the recovery medium. The cells were centrifuged at 100×g at room temperature for 5 min, and the supernatant was removed. The hepatocytes were resuspended in an appropriate volume of incubation medium, and the cell viability was calculated by Trypan Blue staining method. 198 μL of hepatocyte suspension (0.51×10^6 cells/mL) was added to the preheated incubation plate. For the culture medium control group, 198 μL of hepatocyte-free incubation medium was added to T0-MC and T120-MC incubation plate. All incubation plates were pre-incubated in a 37° C. incubator for 10 minutes. Then 2 μL of working solutions of the assay sample and the control compound were added, respectively, and the mixture was mixed well. The incubation plate was immediately put into the shaker in the incubator, and the reaction was initiated while starting the timer. For each time point of each compound, 2 duplicate samples were prepared. The incubation conditions were 37° C., saturated humidity, and 5% CO2. In the assay system, the final concentration of the assay sample was 1 μM, the final concentration of the control sample was 3 μM, the final concentration of hepatocytes was 0.5×10^6 cells/mL, and the final concentration of the total organic solvent was 0.96%, of which the final concentration of DMSO was 0.1%. At the end of the incubation for the corresponding time point, the incubation plate was taken out, and 25 μL of a mixture of compound and control compound with cells was added to the sample plate containing 125 μL of stop solution (200 ng/mL tolbutamide and labetalol in acetonitrile). For the Blank sample plate, 25 μL of hepatocyte-free incubation medium was added directly. After sealing, all sample plates were shaken on a shaker at 600 rpm for 10 minutes, and then centrifuged at 3220×g for 20 minutes. Supernatants of the assay sample and the control sample were diluted with ultrapure water at a ratio of 1:3. All samples were mixed well and analyzed by LC/MS/MS.

Data set [3] in a line: In vitro stability in liver microsomes, human. As to conditions: 0.5 mg/mL. How it is done: as §1, §2, §3, §4
Data set [4] in a line: In vitro stability in liver microsomes, CD-1 mice. As to conditions: CD-1 mice liver microsomes, 0.5 mg/mL. How it is done:
as §1, §2, §3, §4
A general note: Microsomes from liver hold many membrane-bound enzymes, among them those of drug oxidation.

Data set [5] can be described thus: Stability assay in whole blood, SD rats. The conditions noted are these: 5 μM, 37° C. On the procedure:
(§7) Purpose of the assay: Stabilities of the assay compounds in whole blood of CD-1 mice, SD rats, Beagle dogs and cynomolgus monkeys were assayed, respectively.
(§8) Procedure of the assay: On the day of the assay or the day before the assay, fresh whole blood from CD-1 mice, SD rats, beagle dogs, and cynomolgus monkeys was collected using anticoagulant EDTA-K2. Prior to the start of the assay, the whole blood was mixed with PBS in 1:1 (v:v) and the mixture was preheated in a 37° C. water bath for 10-20 minutes. […] […] All samples were incubated in a 37° C. water bath. The final incubation concentration of the compound was 5 μM and the final incubation concentration of the control compound was 2 μM. At the end of incubation for each time point, the corresponding incubation plate was removed and 100 μL of ultrapure water was immediately added to the corresponding sample wells, and mixed well. 800 μL of a solution of 200 ng/mL tolbutamide and labetalol in acetonitrile was added to precipitate the protein. The sample plates were sealed and shaken well, and then centrifuged at 3220×g for 20 min. 150 μL of supernatant was taken out and analyzed by LC/MS/MS.

Data set [6] can be described thus: Metabolic stability in hepatocytes, cynomolgus monkeys. On the procedure:
as §5, §6

Data set [7] in a line: Stability assay in whole blood, CD-1 mice. The conditions noted are these: CD-1 mice whole blood, 5 μM, 37° C. How it is done:
as §7, §8

This note sets out measurements from patent US12012404B2, “Pyrimidoheterocyclic compounds and application thereof” (D3 BIO (WUXI) CO., LTD., priority 2020, dated 2024).

As to `C=C(F)C(=O)N1CCN(c2nc(OCC3CCCN3C)nc3c2COC(c2c(F)c(N)cc(C)c2C(F)(F)F)C3)CC1CC#N.Cl` (single isomer, unassigned) [Compound 8B hydrochloride], the “CLint(liver)” value in data set [1] (1 μM) is listed as below 13.8 mL/min/kg; in data set [2] (1 μM), 35.0 mL/min/kg; in data set [3] (1 μM), 20.7 mL/min/kg; in data set [4] (1 μM), 436.1 mL/min/kg; in data set [6] (1 μM), 36.7 mL/min/kg. For the same compound, the values for the CLint(mic) in data set [1] (1 μM), in data set [3] (1 μM) and in data set [4] (1 μM) were below 9.6 µL/min/mg, 23 µL/min/mg and 110 µL/min/mg, respectively. For the same compound, the T1/2 in data set [1] (1 μM) is on record as above 145 min; in data set [2] (1 μM), 185.2 min; in data set [3] (1 μM) it was 60.3 min; in data set [4] (1 μM), 12.6 min; in data set [6] (1 μM), 136.1 min. Also, the “CLint(hep)” value in data set [2] (1 μM) was 7.5 μL/min/10^6; in data set [6] (1 μM) it was 10.2 μL/min/10^6. The “Detection of assay compound content within” value in data set [5] was found to be 104%. Moreover, the “Detection of assay compound content within 120 min” value in data set [7] is listed as 100%.

Turning to `C=C(F)C(=O)N1CCN(c2nc(OC[C@@]34CCCN3C[C@H](F)C4)nc3c2COC(c2c(F)c(N)cc(C)c2C(F)(F)F)C3)C[C@@H]1CC#N` (stereo partly shown) [Compound 17], the CLint(mic) in data set [1] (1 μM) was below 9.6 µL/min/mg; in data set [3] (1 μM) it was 67.9 µL/min/mg; in data set [4] (1 μM), 285 µL/min/mg. Moreover, the CLint scaled at 1 μM in data set [1] (dog) was below 13.8 mL/min/kg; in data set [2] (rat, cryopreserved hepatocytes, read-out: CLint(liver)), 315 mL/min/kg; in data set [3], 61.1 mL/min/kg; in data set [4] (mouse), 1130 mL/min/kg; in data set [6] (cynomolgus monkey, cryopreserved hepatocytes, read-out: CLint(liver)) it was 185 mL/min/kg. In addition, the half-life at 1 μM is above 145 min in data set [1] (dog); 20.6 min in data set [2] (rat, cryopreserved hepatocytes); 20.4 min in data set [3]; 4.9 min in data set [4] (mouse); 27 min in data set [6] (cynomolgus monkey, cryopreserved hepatocytes). Also, the “CLint(hep)” value in data set [2] (1 μM) came to 67.4 μL/min/10^6; in data set [6] (1 μM) it was 51.3 μL/min/10^6. In addition, the “Detection of assay compound content within” value in data set [5] is 115%. In addition, the “Detection of assay compound content within 120 min” value in data set [7] is 117%.

Usually half-life stands for the time needed for the level to fall by half in the phase considered. A higher half-life goes with slow decline.
